Activity calls are given as the source filed them. The rule behind the calls is not given here.
Experiments:
[1] = target: T1, Hyaluronan mediated motility receptor (Homo sapiens) (UniProt O75330); test: Inhibition of C-terminal His-tagged 7 kDa RHAMM (unknown origin) binding to HA assessed as association constant at 500 nM after 240 secs by SPR method
T1 sequence (whole entry): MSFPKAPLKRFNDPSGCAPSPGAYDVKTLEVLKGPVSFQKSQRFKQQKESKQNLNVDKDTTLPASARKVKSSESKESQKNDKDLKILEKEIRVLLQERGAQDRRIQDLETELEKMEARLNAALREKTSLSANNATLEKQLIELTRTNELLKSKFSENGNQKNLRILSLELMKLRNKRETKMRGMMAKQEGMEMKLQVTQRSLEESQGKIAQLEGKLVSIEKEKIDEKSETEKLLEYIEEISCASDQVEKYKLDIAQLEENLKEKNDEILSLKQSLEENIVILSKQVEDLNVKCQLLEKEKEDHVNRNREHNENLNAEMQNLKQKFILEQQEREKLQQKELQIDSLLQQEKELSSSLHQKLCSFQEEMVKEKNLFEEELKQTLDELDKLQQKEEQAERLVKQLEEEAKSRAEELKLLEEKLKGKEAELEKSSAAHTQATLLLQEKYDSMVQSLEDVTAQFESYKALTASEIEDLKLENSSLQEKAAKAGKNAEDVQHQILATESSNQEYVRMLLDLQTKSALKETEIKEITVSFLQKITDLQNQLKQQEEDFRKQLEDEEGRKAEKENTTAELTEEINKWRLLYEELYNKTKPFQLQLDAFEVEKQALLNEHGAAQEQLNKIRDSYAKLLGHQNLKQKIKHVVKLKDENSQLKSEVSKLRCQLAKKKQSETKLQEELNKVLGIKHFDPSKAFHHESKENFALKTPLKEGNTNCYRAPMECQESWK

[2] = target: T1, Hyaluronan mediated motility receptor (Homo sapiens); test: Inhibition of C-terminal His-tagged 7 kDa RHAMM (unknown origin) binding to HA assessed as association constant at 1000 nM after 240 secs by SPR method
[3] = target: T1, Hyaluronan mediated motility receptor (Homo sapiens); test: Inhibition of C-terminal His-tagged 7 kDa RHAMM (unknown origin) binding to HA assessed as association constant at 1 nM after 240 secs by SPR method
[4] = target: T2, Hyaluronan mediated motility receptor (Homo sapiens, UniProt O75330); test: Inhibition of recombinant RHAMM (unknown origin) binding to HA after 240 secs by SPR method
T2 sequence (O75330 whole entry): T1 sequence (whole entry)

[5] = target: T1, Hyaluronan mediated motility receptor (Homo sapiens); test: Inhibition of C-terminal His-tagged 7 kDa RHAMM (unknown origin) binding to HA assessed as association constant at 10 nM after 240 secs by SPR method
[6] = target: T2, Hyaluronan mediated motility receptor; test: Inhibition of C-terminal His-tagged 7 kDa RHAMM (unknown origin) binding to HA after 240 secs by SPR method
[7] = target: T1, Hyaluronan mediated motility receptor (Homo sapiens); test: Inhibition of C-terminal His-tagged 7 kDa RHAMM (unknown origin) binding to HA assessed as association constant at 100 nM after 240 secs by SPR method
[8] = target: T1, Hyaluronan mediated motility receptor (Homo sapiens); test: Inhibition of C-terminal His-tagged 7 kDa RHAMM (unknown origin) binding to HA assessed as association constant at 750 nM after 240 secs by SPR method
[9] = target: T1, Hyaluronan mediated motility receptor (Homo sapiens); test: Inhibition of C-terminal His-tagged 7 kDa RHAMM (unknown origin) binding to HA at 1 to 1000 nM after 240 secs by SPR method

H-GEFEEEAEEEVA-NH2
K [1]: 1 ×10⁴ /M.s
K [2]: 1.6 ×10⁴ /M.s
K [3]: 0.48 ×10⁴ /M.s
Kd [4]: 0.13 µM
K [5]: 0.22 ×10⁴ /M.s
Kd [6]: 0.265 µM
K [7]: 1.5 ×10⁴ /M.s
K [8]: 1.2 ×10⁴ /M.s

H-GEFSEAREDMAA-NH2
inhibition [9]: inactive

H-EEDFGEEAEEEA-NH2
K [1]: 3 ×10⁴ /M.s
K [2]: 4 ×10⁴ /M.s
K [3]: 5.7 ×10⁴ /M.s
Kd [4]: 0.0326 µM
K [5]: 2.3 ×10⁴ /M.s
Kd [6]: 0.202 µM
K [7]: 1.4 ×10⁴ /M.s
K [8]: 3.3 ×10⁴ /M.s

H-VEGEGEEEGEEY-NH2
K [1]: 5.8 ×10⁴ /M.s
K [2]: 4.1 ×10⁴ /M.s
K [3]: 0.7 ×10⁴ /M.s
Kd [4]: 0.0242 µM
K [5]: 1.6 ×10⁴ /M.s
Kd [6]: 0.0433 µM
K [7]: 0.2 ×10⁴ /M.s
K [8]: 5 ×10⁴ /M.s

H-EAFEDEEEEIDG-NH2
K [1]: 0.9 ×10⁴ /M.s
K [2]: 3.4 ×10⁴ /M.s
K [3]: 3.7 ×10⁴ /M.s
Kd [4]: 0.211 µM
K [5]: 3.1 ×10⁴ /M.s
Kd [6]: 0.289 µM
K [7]: 3.1 ×10⁴ /M.s
K [8]: 2.9 ×10⁴ /M.s

H-SVEAEAEEGEEY-NH2
K [1]: 2.3 ×10⁴ /M.s
K [2]: 1.3 ×10⁴ /M.s
K [3]: 0.02 ×10⁴ /M.s
Kd [4]: 0.331 µM
K [5]: 0.16 ×10⁴ /M.s
Kd [6]: 0.0319 µM
K [7]: 1.4 ×10⁴ /M.s
K [8]: 1.9 ×10⁴ /M.s

H-FTEAESNMNDLV-NH2
K [1]: 4.9 ×10⁴ /M.s
K [2]: 2 ×10⁴ /M.s
K [3]: 0.8 ×10⁴ /M.s
Kd [4]: 0.0302 µM
K [5]: 0.5 ×10⁴ /M.s
Kd [6]: 0.0209 µM
K [7]: 0.1 ×10⁴ /M.s
K [8]: 3.5 ×10⁴ /M.s

From ChEMBL document CHEMBL4152371, “A truncated RHAMM protein for discovering novel therapeutic peptides” (Bioorg Med Chem, 2018)
